Where “and” joins values, the source holds several entries; their conditions need not be identical. Equal values may be shown once. Square brackets hold non-standard residues; d marks the D form. Peptide text beside a SMILES is read from it.
Tests used:
[1] = tested on: THP1-Lucia ISG cells; assay: Luciferase reporter assay, dsDNA stimulation; type: cell-based, human; set-up: Type I interferon response, luciferase activity, Fig. 1c / luciferase activity, Fig. 2a: scale not given here
Description: To screen direct cGAS inhibitors targeting protein-DNA interface from our developed focused library of macrocyclic peptides, we applied an RNA-based fluorescent biosensor for 2’,3’-cGAMP to detect cGAS activity in vitro (Supplementary Fig. 1a)[49]. The formation of 2’,3’-cGAMP from ATP and GTP was catalyzed by recombinant human cGAS enzyme (hcGAS-ΔN, residues 147–522, Supplementary Fig. 1b) in the presence of ISD (interferon stimulatory DNA, a 45-bp dsDNA), which was readily quantified by the RNA-based fluorescent biosensor and was further confirmed by ion exchange chromatography (Supplementary Fig. 1c). […] Subsequently, a total of 90 macrocyclic peptides were screened at a concentration of 20 μM (Fig. 1a and Supplementary Fig. 1e), and 4 hits (XQ2, XQ8, XQ19, and XQ46) were obtained for further testing at a cut-off of 40% inhibition (Supplementary Table 1). To evaluate the inhibitory effect of the hits against cGAS in cells, we employed real-time quantitative PCR (qPCR) to examine mRNA levels of IFNΒ1 in THP1 cells. The reported cGAS inhibitor RU.521 was used as the positive control, and the non-active peptide XQ28 in the screening assay was used as the negative control. […] The inhibition of cGAS by these hits was further confirmed in the reporter cell line THP1-Lucia ISG (Invivogen) that expresses secreted luciferase induced by an IRF3-inducible ISG54 promoter (Fig. 1c). The discrepancy between the inhibitory effect of the hits in protein and cellular assays may be attributed to their different cellular permeability.
THP1-Lucia ISG cells (Invivogen) were seeded into a 96-well plate and incubated with RU.521 (Invivogen) or XQ2 for the indicated time, and then transfected with dsDNA by lipofectamine 2000 (Invitrogen) or infected by HSV-1 with the indicated titer for 24 h. The supernatant was collected and 50 μL QUANTI-Luc Luciferase reagent (Invivogen) was added to 20 μL supernatants per well, and luciferase luminescence was detected by a microplate reader (BioTek Synergy H1) immediately.

[2] = target: T1, hcGAS-FL and Cy3-ISD (Homo sapiens, UniProt Q8N884); assay: In vitro phase separation assay (cGAS-DNA condensates); type: biochemical; conditions: for Droplets (%), Fig. S6b: hcGAS-FL 100nM, Cy3-ISD 100nM; for Droplets (%), Fig. 4e: hcGAS-FL 500 nM, Cy3-ISD 500 nM; for Droplets (%), Fig. S6d: hcGAS-FL 1 μM, Cy3-ISD 1 μM
T1 construct: The gene encoding full-length human cGAS (hcGAS-FL); 6xHis-SUMO (N, cleaved yes); made in house; host or cells: Escherichia coli BL21 (DE3)
Protocol: Purified hcGAS-FL and Cy3-labeled DNA (Cy3-ISD) with the indicated concentrations were mixed with DMSO (0.1%) or indicated doses of XQ2 in 96-well plates (JingAn Biological) pre-coated with 20 mg/ml BSA (Sigma). Mixtures were incubated in buffer (20 mM Tris-HCl, pH 7.5, 150 mM NaCl and 1 mg/ml BSA) with standing at 37 °C in a total reaction volume of 50 μL. Phase-separated droplets were imaged at the indicated time by using Nikon A1R+ confocal microscope with a 60× oil objective, Nikon A1 camera, and X-Cite 120LED laser. Images were analyzed using FIJI software. The number of droplets was measured as the percentage of the imaging area occupied by Cy3-labeled components, and was plotted using GraphPad Prism 8.

[3] = tested on: Hela cells; assay: Immunofluorescence of IRF3 and p-IRF3 after HSV-1; type: cell-based, human
Protocol: Hela cells were treated as described for the indicated time and then fixed with 4% paraformaldehyde for 25 min, permeabilized with 0.25% Triton X-100 for 10 min, and blocked in 1% BSA for 1 h at 37 °C. Then, cells were incubated with indicated primary antibodies overnight at 4 °C, and followed by incubating with donkey anti-rabbit IgG Alexa Fluor 488-labeled secondary antibodies (Abcam, Cat# ab150073, 1:200) for 1 h at 37 °C. The nuclei were counterstained with DAPI (Sigma-Aldrich) before the images were acquired using a Nikon A1R+ confocal microscope.

[4] = target: T2, recombinant human cGAS enzyme (hcGAS-ΔN, residues 147–522) (Homo sapiens, UniProt Q8N884); assay: RNA-based fluorescent biosensor assay of cGAS activity (2',3'-cGAMP formation), in vitro screening; type: biochemical
T2 construct: N-terminally truncated human cGAS (hcGAS-ΔN, residues 147–522); 6xHis-SUMO (N, cleaved yes); made in house; host or cells: Escherichia coli BL21 (DE3)
In short: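 In 40 mM Tris-HCl pH 7.5, 100 mM NaCl, 10 mM MgCl2, ISD (0.5 μM) started the reaction with hcGAS-ΔN (1.5 μM), ATP (1 mM) and GTP (1 mM). Incubation was 2 h at 37 °C, with compounds screened at 20 μM. 2',3'-cGAMP formed was quantified with an RNA-based fluorescent biosensor.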

[5] = target: hcGAS-FL + FAM-ISD (Homo sapiens, UniProt Q8N884); assay: biochemical
Protocol: Purified hcGAS-FL (300 nM) or hcGAS-FL (D191R) (300 nM) and FAM-labeled DNA (FAM-ISD) (40 nM) were incubated with or without XQ2 in buffer (20 mM HEPSE, pH 7.5, 125 mM KCl, 10 mM MgCl2). Samples were dispensed in 30 μ L final volumes per well into a 384-well flat-bottom black plate (Corning 3575). The polarization was detected by a microplate reader (BioTek Synergy H1) with a fluorescence polarization filter cube (excitation wavelength: 485 ± 10 nm; emission wavelength: 528 ± 10 nm) immediately.

[6] = in vivo; conditions: C57BL/6, mouse, iv, 10 mg/kg
Protocol: Whole blood samples were collected in EDTA-K2 surface-coated tubes at 0.083, 0.25, 0.5, 1, 2, 5, 7, 24 h post administration. The results were analyzed by LC-MS.

T1 sequence (Q8N884 whole entry): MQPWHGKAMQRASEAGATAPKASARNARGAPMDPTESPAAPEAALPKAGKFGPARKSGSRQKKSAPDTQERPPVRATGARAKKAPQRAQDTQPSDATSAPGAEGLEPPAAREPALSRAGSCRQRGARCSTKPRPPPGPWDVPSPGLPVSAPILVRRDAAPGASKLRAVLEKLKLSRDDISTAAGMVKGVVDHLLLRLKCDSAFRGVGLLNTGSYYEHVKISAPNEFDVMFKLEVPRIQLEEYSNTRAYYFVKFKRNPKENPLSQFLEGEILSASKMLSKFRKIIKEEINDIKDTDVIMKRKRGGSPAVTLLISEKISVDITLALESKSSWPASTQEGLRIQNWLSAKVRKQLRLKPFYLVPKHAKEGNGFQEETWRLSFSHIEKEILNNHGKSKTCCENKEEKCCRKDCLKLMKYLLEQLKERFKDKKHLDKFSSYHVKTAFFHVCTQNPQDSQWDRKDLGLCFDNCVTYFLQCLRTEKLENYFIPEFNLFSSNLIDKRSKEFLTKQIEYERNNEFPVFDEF
T2 sequence (Q8N884 147-522, stated change not applied): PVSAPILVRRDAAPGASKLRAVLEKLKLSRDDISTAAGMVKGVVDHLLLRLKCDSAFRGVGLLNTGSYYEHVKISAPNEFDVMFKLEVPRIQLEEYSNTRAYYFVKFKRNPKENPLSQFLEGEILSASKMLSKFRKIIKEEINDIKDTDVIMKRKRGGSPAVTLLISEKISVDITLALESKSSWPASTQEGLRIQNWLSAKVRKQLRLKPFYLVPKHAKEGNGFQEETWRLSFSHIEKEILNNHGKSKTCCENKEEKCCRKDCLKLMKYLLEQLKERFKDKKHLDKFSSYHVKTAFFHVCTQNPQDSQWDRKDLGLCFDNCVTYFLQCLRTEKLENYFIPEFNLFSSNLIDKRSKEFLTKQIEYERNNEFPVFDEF
Sequence of hcGAS-FL + FAM-ISD (Q8N884 whole entry): as the sequence (Q8N884 whole entry) above

Structure (SMILES): CC(C)C[C@@H]1NC(=O)[C@H](CCCNC(=N)N)NC(=O)[C@H](C(C)C)NC(=O)[C@@H]2CCCN2C(=O)[C@@H](Cc2ccccc2)NC(=O)[C@H](CC(C)C)NC(=O)[C@H](CCCNC(=N)N)NC(=O)[C@H](C(C)C)NC(=O)[C@H](C)NC(=O)[C@@H](Cc2ccccc2)NC1=O [XQ2, Cyclo (LfAVRLfPVR)] (cyclo(L[dF]AVRL[dF]PVR))
- dsDNA-induced luciferase reporter signal [1]: inhibited dsDNA-induced signaling in THP1 cells in a dose-dependent manner with an inhibitory activity comparable to that of RU.521
- luciferase activity, Fig. 2a ([1]; Mock (no dsDNA), compound 10 μM, replicate values): 0.1339 and 0.107 and 0.1281
- luciferase activity, Fig. 2a ([1]; Mock, 1.25 μM): 0.09057 and 0.08624 and 0.1133
- luciferase activity, Fig. 2a ([1]; Mock, 2.5 μM): 0.08177 and 0.0892 and 0.09714
- luciferase activity, Fig. 2a ([1]; Mock, 5 μM): 0.1148 and 0.09368 and 0.09512
- luciferase activity, Fig. 2a ([1]; dsDNA 24 h, 1.25 μM): 0.7893 and 0.9483 and 1.24
- luciferase activity, Fig. 2a ([1]; dsDNA 24 h, 2.5 μM): 1.035 and 1.02 and 0.8001
- luciferase activity, Fig. 2a ([1]; dsDNA 24 h, 5 μM): 0.8667 and 0.7097 and 0.78
- luciferase activity, Fig. 2a ([1]; dsDNA 24 h, compound 10 μM, 3 h pretreatment, replicate values): 0.4481 and 0.3329 and 0.2712
- Type I interferon response, luciferase activity, Fig. 1c ([1]; dsDNA 24 h, replicate values): 0.5575 and 0.4465 and 0.4391
- DNA-induced liquid phase condensation of cGAS [2]: efficiently suppressed DNA-induced liquid phase condensation of cGAS in a dose-dependent manner
- Droplets (%), Fig. S6b ([2]; XQ2 10 μM): 33.0922% and 37.8074% and 43.9421%
- Droplets (%), Fig. S6b ([2]; XQ2 20 μM): 10.262% and 16.2032% and 13.5624%
- Droplets (%), Fig. S6b ([2]; XQ2 40 μM): 8.642% and 8.102% and 4.321%
- Droplets (%), Fig. 4e ([2]; 30 min 37 °C, XQ2 10 μM): 73.0692% and 66.6865% and 62.8824%
- Droplets (%), Fig. 4e ([2]; XQ2 20 μM): 40.7983% and 55.7848% and 51.751%
- Droplets (%), Fig. 4e ([2]; XQ2 40 μM): 25.4542% and 20.5523% and 21.4459%
- Droplets (%), Fig. S6d ([2]; XQ2 10 μM): 79.2214% and 80.5313% and 77.1189%
- Droplets (%), Fig. S6d ([2]; XQ2 20 μM): 68.3204% and 65.6495% and 68.2188%
- Droplets (%), Fig. S6d ([2]; XQ2 40 μM): 48.2853% and 49.5952% and 47.6049%
- quantification of cells with nuclear IRF3, Fig. 2f ([3]; HSV-1 6 h, 10 μM): 5.1642 and 6.6102 and 7.0558
- quantification of cells with p-IRF3, Fig. 2g ([3]; HSV-1 6 h, 10 μM): 0.5674 and 0.8706 and 1.039
- nuclear translocation and phosphorylation of IRF-3, immunofluorescence ([3]; HSV-1, 10 μM): significantly inhibited the nuclear translocation and phosphorylation of IRF-3 triggered by HSV-1
- Remaining activity (%), Fig. 1a source data ([4]; 20 μM, replicate values): 59.4781% and 59.6712%
- remaining activity at 20 µM ([4]; 20 μM, replicate values, read-out: Remaining activity (%), Fig. 1a source data): 59.5%
- Inhibition % ([4]; peptides screened at 20 μM, Supplementary Table 1 / Fig. S5b, 20 µM): ≥ 40%
- inhibition at 20 µM ([4]; peptides screened at 20 μM, Supplementary Table 1 / Fig. S5b, read-out: Inhibition %): 40%
- IC50 [5]: 19.2 ± 6.7 µM

Structure (SMILES): CC(C)C[C@@H]1NC(=O)[C@H](CCCNC(=N)N)NC(=O)[C@H](C(C)C)NC(=O)[C@@H]2CCCN2C(=O)[C@@H](Cc2ccccc2)NC(=O)[C@H](CC(C)C)NC(=O)[C@H](CCCNC(=N)N)NC(=O)[C@H]([C@@H](C)O)NC(=O)[C@H](C)NC(=O)[C@@H](Cc2ccccc2)NC1=O [XQ2B] (cyclo([dF]ATRL[dF]PVRL))
- half-life [6]: 1.1 h
- level at 0.083 h ([6]; Conc (ng/ml), Fig. S11a): 101 µg/mL
- level at 0.25 h ([6]; Conc (ng/ml), Fig. S11a): 63.6 µg/mL
- level at 0.5 h ([6]; Conc (ng/ml), Fig. S11a): 50.4 µg/mL
